Literature values as cited in patent publication US20240366545A1, “ANTIBACTERIAL PORPHYRIN NANOPARTICLES AND METHODS FOR MAKING AND USING THE SAME” (priority 2021, published 2024).

Test system: normal mammalian cells

CCCCCCCCCCCCCCCC[N+](C)(C)C.[Br-] [CTAB, cetyl trimethylammonium bromide]
toxic concentration: ≥ 10 µM
